Data published in patent US20260234144A1 (TAY THERAPEUTICS LIMITED, priority 2023, published 2026).

Test system: R223X stop codon in the mutated luciferase gene, ADXC8 luciferase reporter cell line
Test: cells
Assay type: cell-based
Conditions: 24 h, ADXC8 cells, 24 hours; for Emax: read-out: Fold Over Control, maximum fold response relative to 200 μM G418; for EC (100% of 200 uM G418 response): read-out: pC100%, negative logarithm of the concentration giving the same response as 200 μM G418

| SMILES | Emax | EC (100% of 200 uM G418 response) |
| --- | --- | --- |
| Cc1cc(C)c2c(N)nc(NC[C@H]3CNCCO3)nc2n1 [Example 161] | 100 to 3000% | 10 to 100 µM |
| Cc1cc(C)c2c(N)nc(NCCNCC(F)(F)F)nc2n1 [Example 162] | 0 to 100% | > 31.6 µM |
| Cc1cc(C)c2c(N)nc(NCCN3CC(F)C3)nc2n1 [Example 163] | 100 to 3000% | 10 to 100 µM |
| COCC1CN(CCNc2nc(N)c3c(C)cc(C)nc3n2)C1 [Example 164] | 0 to 100% | > 31.6 µM |
| Cc1cc(C)c2c(N)nc(NCCN3CCC4(CCOCC4)C3)nc2n1 [Example 165] | 0 to 100% | > 31.6 µM |
| Cc1cc(C)c2c(N)nc(NCCN3CC(C(F)(F)F)C3)nc2n1 [Example 166] | 100 to 3000% | 10 to 100 µM |
| Cc1cc(C)c2c(N)nc(NCCN3CC4(CCCO4)C3)nc2n1 [Example 167] | 0 to 100% | > 31.6 µM |
| Cc1cc(C)c2c(N)nc(NCCNCC(F)F)nc2n1 [Example 168] | 100 to 3000% | 10 to 100 µM |
| Cc1cc(C)c2c(N)nc(NCCN3CC(F)(F)C3)nc2n1 [Example 169] | 0 to 100% | > 31.6 µM |
| Cc1cc(C)c2c(N)nc(NCC3CCN(C)C3)nc2n1 (stereo not shown) [Example 170] | 100 to 3000% | 10 to 100 µM |
| Cc1cc(C)c2c(N)nc(NC3CC(C)(C)N(C)C(C)(C)C3)nc2n1 [Example 171] | 100 to 3000% | 10 to 100 µM |
| COCCN1CCC(Nc2nc(N)c3c(C)cc(C)nc3n2)CC1 [Example 172] | 100 to 3000% | 10 to 100 µM |
| Cc1cc(C)c2c(N)nc(NCCN3CCOCC3)nc2n1 [Example 173] | 0 to 100% | > 31.6 µM |
| Cc1cc(C)c2c(N)nc(NCC3CCCN(C)C3)nc2n1 (stereo not shown) [Example 174] | 100 to 3000% | 10 to 100 µM |
| Cc1cc(C)c2c(N)nc(NC3CCNC(C)C3)nc2n1 (stereo not shown) [Example 175] | 100 to 3000% | 1 to 10 µM |
| Cc1cc(C)c2c(N)nc(NC[C@@H]3CNCCO3)nc2n1 [Example 176] | 100 to 3000% | 1 to 10 µM |

| SMILES | Emax | EC (100% of 200 uM G418 response) |
| --- | --- | --- |
| Cc1cc(C)c2c(N)nc(NC3C[C@H]4CC[C@@H](C3)N4)nc2n1 (stereo partly shown) [Example 177] | 100 to 3000% | 0.1 to 1 µM |
| Cc1cc(C)c2c(N)nc(NC3CCN(CC(F)(F)F)CC3)nc2n1 [Example 178] | 0 to 100% | > 100 µM |
| Cc1cc(C)c2c(N)nc(NC3CCCN(C)CC3)nc2n1 (stereo not shown) [Example 179] | 100 to 3000% | 1 to 10 µM |
| Cc1cc(C)c2c(N)nc(N[C@@H]3CCNC[C@H]3O)nc2n1 [Example 180] | 100 to 3000% | 1 to 10 µM |
| Cc1cc(C)c2c(N)nc(N[C@@H]3CCCC[C@H]3N(C)C)nc2n1 [Example 181] | 0 to 100% | > 31.6 µM |
| Cc1cc(C)c2c(N)nc(NC[C@@H]3CCCN3)nc2n1 [Example 182] | 0 to 100% | > 31.6 µM |
| Cc1cc(C)c2c(N)nc(NCCN3CC4(CCOC4)C3)nc2n1 [Example 183] | 0 to 100% | > 31.6 µM |
| Cc1cc(C)c2c(N)nc(NCCN3CCC3)nc2n1 [Example 184] | 100 to 3000% | 10 to 100 µM |
| Cc1cc(C)c2c(N)nc(NCCCNCC(F)(F)F)nc2n1 [Example 185] | 0 to 100% | > 31.6 µM |
| Cc1cc(C)c2c(N)nc(NCCCN3CC(F)C3)nc2n1 [Example 186] | 100 to 3000% | 10 to 100 µM |
| Cc1cc(C)c2c(N)nc(NCCCN3CC4(CCOC4)C3)nc2n1 [Example 187] | 100 to 3000% | 10 to 100 µM |
| COCC1CN(CCCNc2nc(N)c3c(C)cc(C)nc3n2)C1 [Example 188] | 0 to 100% | > 31.6 µM |
| Cc1cc(C)c2c(N)nc(NCCCN3CCC4(CCOCC4)C3)nc2n1 [Example 189] | 0 to 100% | > 31.6 µM |
| Cc1cc(C)c2c(N)nc(NCCCN3CC(C(F)(F)F)C3)nc2n1 [Example 190] | 100 to 3000% | 10 to 100 µM |
| Cc1cc(C)c2c(N)nc(NCCCN3CCC3)nc2n1 [Example 191] | 100 to 3000% | 10 to 100 µM |
| Cc1cc(C)c2c(N)nc(NCCCN3CC4(CCCO4)C3)nc2n1 [Example 192] | 0 to 100% | > 31.6 µM |
